{"source": "patent US12077503B2", "about": "“Substituted cyclic amides and their use as herbicides” (FMC CORPORATION, priority 2015, dated 2024)", "experiment_in_all_cases": "Test C preemergence", "format_in_all_cases": "in vivo", "key": {"[1]": {"test_system": "Galium (catchweed bedstraw, Galium aparine)", "conditions": "for Plant response rating, Galium: scale 0 to 100, 0 no effect, 100 complete control", "method_in_brief": "(§1)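 Greenhouse test: seeds in a loam and sand blend treated preemergence, or seedlings at the 1- to 4-leaf stage (2 to 18 cm) in a peat, vermiculite and limestone mix treated postemergence, with test chemicals in a surfactant-containing non-phytotoxic solvent. Scored by eye at 13 to 15 d relative to controls, 0 (no effect) to 100 (complete control).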"}, "[2]": {"test_system": "barnyardgrass (Echinochloa crus-galli)", "conditions": "for Plant response rating, Barnyardgrass: scale 0 to 100, 0 no effect, 100 complete control", "method_in_brief": "as §1"}, "[3]": {"test_system": "blackgrass (Alopecurus myosuroides)", "conditions": "for Plant response rating, Blackgrass: scale 0 to 100, 0 no effect, 100 complete control", "method_in_brief": "as §1"}, "corn (Zea mays)": {"test_system": "corn (Zea mays)", "conditions": "for Plant response rating, Corn: scale 0 to 100, 0 no effect, 100 complete control", "method_in_brief": "as §1"}, "[4]": {"test_system": "crabgrass, large (large crabgrass, Digitaria sanguinalis)", "conditions": "for Plant response rating, Crabgrass, Large: scale 0 to 100, 0 no effect, 100 complete control", "method_in_brief": "as §1"}, "[5]": {"test_system": "foxtail, giant (giant foxtail, Setaria faberii)", "conditions": "for Plant response rating, Foxtail, Giant: scale 0 to 100, 0 no effect, 100 complete control", "method_in_brief": "as §1"}, "[6]": {"test_system": "johnsongrass (Sorghum halepense)", "conditions": "for Plant response rating, Johnsongrass: scale 0 to 100, 0 no effect, 100 complete control", "method_in_brief": "as §1"}, "[7]": {"test_system": "lambsquarters (Chenopodium album)", "conditions": "for Plant response rating, Lambsquarters: scale 0 to 100, 0 no effect, 100 complete control", "method_in_brief": "as §1"}, "[8]": {"test_system": "morningglory (Ipomoea coccinea)", "conditions": "for Plant response rating, Morningglory: scale 0 to 100, 0 no effect, 100 complete control", "method_in_brief": "as §1"}, "[9]": {"test_system": "nutsedge, yellow (yellow nutsedge, Cyperus esculentus)", "conditions": "for Plant response rating, Nutsedge, Yellow: scale 0 to 100, 0 no effect, 100 complete control", "method_in_brief": "as §1"}, "[10]": {"test_system": "oilseed rape (Brassica napus)", "conditions": "for Plant response rating, Oilseed Rape: scale 0 to 100, 0 no effect, 100 complete control", "method_in_brief": "as §1"}, "[11]": {"test_system": "pigweed (Amaranthus retroflexus)", "conditions": "for Plant response rating, Pigweed: scale 0 to 100, 0 no effect, 100 complete control", "method_in_brief": "as §1"}, "[12]": {"test_system": "ragweed (common ragweed, Ambrosia elatior)", "conditions": "for Plant response rating, Ragweed: scale 0 to 100, 0 no effect, 100 complete control", "method_in_brief": "as §1"}, "[13]": {"test_system": "ryegrass, Italian (Italian ryegrass, Lolium multiflorum)", "conditions": "for Plant response rating, Ryegrass, Italian: scale 0 to 100, 0 no effect, 100 complete control", "method_in_brief": "as §1"}, "soybean (Glycine max)": {"test_system": "soybean (Glycine max)", "method_in_brief": "as §1"}, "[14]": {"test_system": "velvetleaf (Abutilon theophrasti)", "conditions": "for Plant response rating, Velvetleaf: scale 0 to 100, 0 no effect, 100 complete control", "method_in_brief": "as §1"}, "[15]": {"test_system": "waterhemp (common waterhemp, Amaranthus rudis)", "conditions": "for Plant response rating, Waterhemp: scale 0 to 100, 0 no effect, 100 complete control", "method_in_brief": "as §1"}, "[16]": {"test_system": "wheat (winter wheat, Triticum aestivum)", "conditions": "for Plant response rating, Wheat: scale 0 to 100, 0 no effect, 100 complete control", "method_in_brief": "as §1"}, "[17]": {"conditions": "31 g ai/ha, 0 is no effect, 100 is complete control"}}}
{"molecule": "CC(C)Oc1cccc(C2CN(C)C(=O)C2C(=O)Nc2cccc(F)c2F)c1", "note": "(stereo not shown) [Compound 651]", "values": [{"measurement": "Plant response rating (scale of 0 to 100), Galium", "setting": "[1]; [17]", "value": 60}, {"measurement": "Plant response rating, Galium", "setting": "[1]; 62 g ai/ha", "value": 50}, {"measurement": "Plant response rating, Galium", "setting": "[1]; 125 g ai/ha", "value": 90}, {"measurement": "Plant response rating, Galium", "setting": "[1]; 250 g ai/ha", "value": 90}, {"measurement": "Plant response rating (scale of 0 to 100), Barnyardgrass", "setting": "[2]; [17]", "value": 95}, {"measurement": "Plant response rating, Barnyardgrass", "setting": "[2]; 62 g ai/ha", "value": 98}, {"measurement": "Plant response rating, Barnyardgrass", "setting": "[2]; 125 g ai/ha", "value": 100}, {"measurement": "Plant response rating, Barnyardgrass", "setting": "[2]; 250 g ai/ha", "value": 100}, {"measurement": "Plant response rating (scale of 0 to 100), Blackgrass", "setting": "[3]; [17]", "value": 40}, {"measurement": "Plant response rating, Blackgrass", "setting": "[3]; 62 g ai/ha", "value": 45}, {"measurement": "Plant response rating, Blackgrass", "setting": "[3]; 125 g ai/ha", "value": 60}, {"measurement": "Plant response rating, Blackgrass", "setting": "[3]; 250 g ai/ha", "value": 85}, {"measurement": "Plant response rating (scale of 0 to 100), Corn", "setting": "corn (Zea mays); [17]", "value": 25}, {"measurement": "Plant response rating, Corn", "setting": "corn (Zea mays); 62 g ai/ha", "value": 55}, {"measurement": "Plant response rating, Corn", "setting": "corn (Zea mays); 125 g ai/ha", "value": 70}, {"measurement": "Plant response rating, Corn", "setting": "corn (Zea mays); 250 g ai/ha", "value": 70}, {"measurement": "Plant response rating (scale of 0 to 100), Crabgrass, Large", "setting": "[4]; [17]", "value": 98}, {"measurement": "Plant response rating, Crabgrass, Large", "setting": "[4]; 62 g ai/ha", "value": 100}, {"measurement": "Plant response rating, Crabgrass, Large", "setting": "[4]; 125 g ai/ha", "value": 100}, {"measurement": "Plant response rating, Crabgrass, Large", "setting": "[4]; 250 g ai/ha", "value": 100}, {"measurement": "Plant response rating (scale of 0 to 100), Foxtail, Giant", "setting": "[5]; [17]", "value": 95}, {"measurement": "Plant response rating, Foxtail, Giant", "setting": "[5]; 62 g ai/ha", "value": 98}, {"measurement": "Plant response rating, Foxtail, Giant", "setting": "[5]; 125 g ai/ha", "value": 98}, {"measurement": "Plant response rating, Foxtail, Giant", "setting": "[5]; 250 g ai/ha", "value": 100}, {"measurement": "Plant response rating (scale of 0 to 100), Johnsongrass", "setting": "[6]; [17]", "value": 20}, {"measurement": "Plant response rating, Johnsongrass", "setting": "[6]; 62 g ai/ha", "value": 50}, {"measurement": "Plant response rating, Johnsongrass", "setting": "[6]; 125 g ai/ha", "value": 70}, {"measurement": "Plant response rating, Johnsongrass", "setting": "[6]; 250 g ai/ha", "value": 80}, {"measurement": "Plant response rating (scale of 0 to 100), Lambsquarters", "setting": "[7]; [17]", "value": 35}, {"measurement": "Plant response rating, Lambsquarters", "setting": "[7]; 62 g ai/ha", "value": 55}, {"measurement": "Plant response rating, Lambsquarters", "setting": "[7]; 125 g ai/ha", "value": 85}, {"measurement": "Plant response rating, Lambsquarters", "setting": "[7]; 250 g ai/ha", "value": 100}, {"measurement": "Plant response rating (scale of 0 to 100), Morningglory", "setting": "[8]; [17]", "value": 0}, {"measurement": "Plant response rating, Morningglory", "setting": "[8]; 62 g ai/ha", "value": 0}, {"measurement": "Plant response rating, Morningglory", "setting": "[8]; 125 g ai/ha", "value": 0}, {"measurement": "Plant response rating, Morningglory", "setting": "[8]; 250 g ai/ha", "value": 0}, {"measurement": "Plant response rating (scale of 0 to 100), Nutsedge, Yellow", "setting": "[9]; [17]", "value": 0}, {"measurement": "Plant response rating, Nutsedge, Yellow", "setting": "[9]; 62 g ai/ha", "value": 0}, {"measurement": "Plant response rating, Nutsedge, Yellow", "setting": "[9]; 125 g ai/ha", "value": 0}, {"measurement": "Plant response rating, Nutsedge, Yellow", "setting": "[9]; 250 g ai/ha", "value": 0}, {"measurement": "Plant response rating (scale of 0 to 100), Oilseed Rape", "setting": "[10]; [17]", "value": 75}, {"measurement": "Plant response rating, Oilseed Rape", "setting": "[10]; 62 g ai/ha", "value": 80}, {"measurement": "Plant response rating, Oilseed Rape", "setting": "[10]; 125 g ai/ha", "value": 90}, {"measurement": "Plant response rating, Oilseed Rape", "setting": "[10]; 250 g ai/ha", "value": 90}, {"measurement": "Plant response rating (scale of 0 to 100), Pigweed", "setting": "[11]; [17]", "value": 35}, {"measurement": "Plant response rating, Pigweed", "setting": "[11]; 62 g ai/ha", "value": 40}, {"measurement": "Plant response rating, Pigweed", "setting": "[11]; 125 g ai/ha", "value": 50}, {"measurement": "Plant response rating, Pigweed", "setting": "[11]; 250 g ai/ha", "value": 85}, {"measurement": "Plant response rating (scale of 0 to 100), Ragweed", "setting": "[12]; [17]", "value": 20}, {"measurement": "Plant response rating, Ragweed", "setting": "[12]; 62 g ai/ha", "value": 25}, {"measurement": "Plant response rating, Ragweed", "setting": "[12]; 125 g ai/ha", "value": 60}, {"measurement": "Plant response rating, Ragweed", "setting": "[12]; 250 g ai/ha", "value": 85}, {"measurement": "Plant response rating (scale of 0 to 100), Ryegrass, Italian", "setting": "[13]; [17]", "value": 15}, {"measurement": "Plant response rating, Ryegrass, Italian", "setting": "[13]; 62 g ai/ha", "value": 40}, {"measurement": "Plant response rating, Ryegrass, Italian", "setting": "[13]; 125 g ai/ha", "value": 75}, {"measurement": "Plant response rating, Ryegrass, Italian", "setting": "[13]; 250 g ai/ha", "value": 85}, {"measurement": "Plant response rating (scale of 0 to 100), Soybean", "setting": "soybean (Glycine max); [17]", "value": 5}, {"measurement": "Plant response rating, Soybean", "setting": "soybean (Glycine max); 125 g ai/ha, scale 0 to 100, 0 no effect, 100 complete control", "value": 0}, {"measurement": "Plant response rating (scale of 0 to 100), Velvetleaf", "setting": "[14]; [17]", "value": 25}, {"measurement": "Plant response rating, Velvetleaf", "setting": "[14]; 62 g ai/ha", "value": 45}, {"measurement": "Plant response rating, Velvetleaf", "setting": "[14]; 125 g ai/ha", "value": 70}, {"measurement": "Plant response rating, Velvetleaf", "setting": "[14]; 250 g ai/ha", "value": 70}, {"measurement": "Plant response rating (scale of 0 to 100), Waterhemp", "setting": "[15]; [17]", "value": 20}, {"measurement": "Plant response rating, Waterhemp", "setting": "[15]; 62 g ai/ha", "value": 40}, {"measurement": "Plant response rating, Waterhemp", "setting": "[15]; 125 g ai/ha", "value": 50}, {"measurement": "Plant response rating, Waterhemp", "setting": "[15]; 250 g ai/ha", "value": 85}, {"measurement": "Plant response rating (scale of 0 to 100), Wheat", "setting": "[16]; [17]", "value": 50}, {"measurement": "Plant response rating, Wheat", "setting": "[16]; 62 g ai/ha", "value": 50}, {"measurement": "Plant response rating, Wheat", "setting": "[16]; 125 g ai/ha", "value": 55}, {"measurement": "Plant response rating, Wheat", "setting": "[16]; 250 g ai/ha", "value": 75}]}
